Molecules are shown by their SMILES.

Test [1] concerns Green peach aphid (Myzus persicae), mixed life stages. In words: Green peach aphid foliar dip test, mortality. Type of test: in vivo. As to conditions: 120 h, infested bell pepper leaves dipped 3 seconds, determined after 5 days, read-out: mortality of green peach aphid in comparison with untreated controls. On the procedure: (§1) The active compounds were formulated in a mixture of 50 vol.-% acetone: 50 vol.-% water. A nonionic surfactant (Kinetic®) was included in the solution at a volume of 0.01% v/v.
(§2) In the following tests, the formulated solutions of the active compounds were diluted to an active ingredient concentration of 300 ppm and the diluted solutions were applied in the below mentioned tests.
Bell pepper plants at the first true-leaf stage were infested prior to treatment by placing heavily infested leaves from the main aphid colony on top of the treatment plants. The aphids were allowed to transfer overnight to accomplish an infestation of 30-40 aphids per plant and the host leaves were removed. The infested leaves of the test plants were then dipped and agitated in the test solution for 3 seconds and allowed to dry in a fume hood. Test plants were maintained under fluorescent lighting in a 24-hr photoperiod at 25° C. and 20-40% relative humidity. Aphid mortality on the treated plants, relative to mortality on untreated check plants, was determined after 5 days. Test compound A provided 85% mortality while test compounds B and C each provided 100% mortality of green peach aphid (Myzus persicae, mixed life stages) in comparison with untreated controls, when applied at 300 ppm. Test Compounds D, E, F, G and H each provided >85% mortality of green peach aphid (Myzus persicae, mixed life stages) in comparison with untreated controls, when applied at 300 ppm.

The subject of test [2] is Cotton aphid (Aphis gossypii), mixed life stages. In words: Cotton aphid foliar dip test, mortality. As to conditions: 120 h, infested cotton cotyledons dipped 3 seconds, determined after 5 days, read-out: mortality of cotton aphid in comparison with untreated controls. The class given is in vivo. How it is done:
as §1, §2
Cotton plants at the cotyledon stage were infested prior to treatment by placing a heavily infested leaf from the main aphid colony on top of each cotyledon. The aphids were allowed to transfer overnight and the host leaf was removed. The infested cotyledons were then dipped and agitated in the test solution for 3 seconds and allowed to dry in a fume hood. Test plants were maintained under fluorescent lighting in a 24-hr photoperiod at 25° C. and 20-40% relative humidity. Aphid mortality on the treated plants, relative to mortality on untreated check plants, was determined after 5 days. In this test, test compounds B, C and F at 300 ppm provided 100%, and 86-99% mortality, respectively, of cotton aphid (Aphis gossypii, mixed life stages) in comparison with untreated controls. Test compound A at 300 ppm provided 75-85% mortality, respectively, of cotton aphid (Aphis gossypii, mixed life stages) in comparison with untreated controls.

As a reminder, the mortality is the percentage killed. With `CC(Oc1ccc(Cl)nc1)C1CCCN1OC(=O)c1ccccc1` (racemic) [Compound E, Benzoic acid 2-[1-(6-chloropyridin-3-yloxy)-ethyl]-pyrrolidin-1-yl ester], the mortality at 300 ppm in test [1] was greater than 85%.
For the compound `Clc1cncc(OC[C@H]2CCCN2)c1` [Compound A, R-3-Chloro-5-(pyrrolidin-2-ylmethyloxy)-pyridine], the mortality at 300 ppm was 85% in test [1] and 75 to 85% in test [2].
Taken in the same sequence, the figures for `CC(C)(C)C(=O)ON1CCCC1COc1cncc(Cl)c1` (stereo not drawn) [Compound B, 2,2-Dimethyl-propionic acid 2-(5-chloropyridin-3-yloxymethyl)pyrrolidin-1-yl ester] were 100% and 100%.
`CC(Oc1ccc(Cl)nc1)C1CCCN1` (stereo not drawn) [Compound F, 2-Chloro-5-(1-pyrrolidin-2-ylethoxy)-pyridine]: the mortality at 300 ppm in test [1] is greater than 85%; in test [2], 86 to 99%.
Take `CC(Oc1cncc(Cl)c1)C1CCCN1` (stereo not drawn) [Compound G, 3-Chloro-5-(1-pyrrolidin-2-ylethoxy)-pyridine]: the mortality at 300 ppm in test [1] was greater than 85%.
Same read-out and setting: in the case of `C[C@@H](Oc1cncc(Cl)c1)C1CCN1` (stereo partly drawn) [Compound H, 2S-3-(1-Azetidin-2-yl-ethoxy)-5-chloro-pyridine] it was greater than 85%.

(Values after patent US20080176826A1, “Pyridine Compounds For Combating Arthropod Pests and Nematodes” (priority 2005, published 2008).)
